Conditions: Liquid, Hot wire method

Cc1ccccc1 [toluene]
Conditions	thermal conductivity [W/m/K]
234.6 K	0.1477
254.58 K	0.1434
273.17 K	0.1374
293.23 K	0.1334
314.68 K	0.1264
334.99 K	0.1211
354.89 K	0.1136
373.92 K	0.1105

CCC(C)=O [butanone]
Conditions	thermal conductivity [W/m/K]
284.48 K	0.1501
294.42 K	0.1481
305.02 K	0.1459
314.26 K	0.1435
323.96 K	0.1414
334.71 K	0.139
344.54 K	0.1362
354.33 K	0.1334
364.46 K	0.1308
374.56 K	0.1284

CCCCOCCO [2-butoxyethan-1-ol]
Conditions	thermal conductivity [W/m/K]
283.96 K	0.1381
293.67 K	0.1365
303.56 K	0.135
314.25 K	0.1333
323.88 K	0.1319
333.98 K	0.1305
344.05 K	0.129
354.63 K	0.1272
363.59 K	0.1258
373.84 K	0.1241

COC [dimethyl ether]
Conditions	thermal conductivity [W/m/K]
229.67 K	0.1832
244.98 K	0.1762
254.6 K	0.1701
271.55 K	0.1605
281.76 K	0.1537
291.33 K	0.1485

From the NIST ThermoML archive (doi:10.1021/je049818g)
